Here are results for nine compounds from US6743917B2, “Camptothecin analogs and methods of preparation thereof” (University of Pittsburgh, priority 1993, dated 2004).

Like-named read-outs stand apart in the source and are kept apart here.

One series can be described thus: in vitro. The conditions noted are these: human.
For series [1] the following is noted: human; for t1/2: blood.
Series [2] in a line: Kinetics of lactone ring opening in PBS buffer (HPLC). Type of series: physicochemical. The conditions noted are these: for % Lactone at Equilibrium: PBS; for half-life: pH 7.4. The method, then:
Kinetics of Lactone Ring Opening. […] Mi and Burke (1994), supra.
FIG. 21 summarizes the stability of DB172 in phosphate buffered saline (PBS) buffer, pH 7.4, at physiological temperature. Shown in the figure are plots of lactone fraction as a function of time for DB172 at different concentrations. Drug was added to solution from a concentrated DMSO stock solution such that the volumes of DMSO were very small (less than 0.5%) relative to the volume of water. […] At the more dilute drug concentrations the drug hydrolyzes as previously observed for other camptothecins containing the ^α-hydroxy-^δ-lactone moiety.

In series [3] the test system is 833K (human teratocarcinoma) cells. The series is described as follows: Cytotoxicity assay, 833K cells (sulforhodamine B protein content). Type of series: cell-based. The conditions noted are these: Homo sapiens; 833K cells, sulforhodamine B; read-out: Inhibition of cancer cell growth IC50, 833K. How it is done:
(§1) Cultures were fixed with trichloroacetic acid and then stained for 30 minutes with 0.4% sulforhodamine B dissolved in 1% acetic acid. Unbound dye was removed by acetic acid washes, and the protein-bound dye was extracted with an unbuffered Tris base [tris(hydroxy-methyl)aminomethan] for determination of absorbance at 570 nm in a 96-well microplate reader. The experiments were carried out in duplicate using five to six concentrations of the drugs tested. Data were analyzed via computer software.

For series [4], the system named is DC-3F (hamster lung) cells. The experiment in a line: Cytotoxicity assay, DC-3F cells (sulforhodamine B protein content). Type of series: cell-based. The conditions noted are these: Mesocricetus auratus, DC3F; DC-3F cells, sulforhodamine B; read-out: Inhibition of cancer cell growth IC50, DC-3F. How it is done: as §1
Series [5] concerns HL-60 (human promyelocytic leukemic) cells. The experiment in a line: Cytotoxicity assay, HL-60 cells (XTT-microculture tetrazolium assay). Type of series: cell-based. The note with it: Homo sapiens; HL-60 cells, 72 hr incubation, XTT; read-out: Inhibition of cancer cell growth IC50, HL-60. How it is done:
The camptothecin derivatives were evaluated for their cytotoxic effects on the growth of HL-60 (human promyelocytic leukemic), 833K (human teratocarcinoma) and DC-3F (hamster lung) cells in vitro. The cells were cultured in an initial density of […]. They were maintained in a 5% CO2 humidified atmosphere at 37° C. in RPMI-1640 media (GIBCO-BRL Grand Island, N.Y.) containing penicillin 100 μ/ml)/streptomycin (100 ^μg/ml) (GIBCO-BRL) and 10% heat inactivated fetal bovine serum. The assay was performed in duplicate in 96-well microplates. The cytotoxicity of the compounds toward HL-60 cells following 72 hr incubation was determined by XTT-microculture tetrazolium assay. Scudiero, D. A., et al., Cancer Res., 48, 4827 (1988), the disclosure of which is incorporated herein by reference. 2′, 3′-bis(-methoxy-4-nitro-5-sulfheny)-5-[(phenylamino)carbonyl]-2H-tetrazolium hydroxide (XTT) was prepared at 1 mg/ml in prewarmed (37° C.) medium without serum. Phenazine methosulfate (PMS) and fresh XTT were mixed together to obtain 0.075 mM PMS-XTT solution (25 ^μl of the stock 5 mM PMS was added per 5 ml of 1 mg/ml XTT). Fifty ^μl of this mixture was added to each well of the cell culture at the end of 72 hr incubation. After incubation at 37° C. for 4 hr., absorbance at 450 nm and 630 nm was measured with a microplate reader (EL340, Bio-Tek Instruments, Inc., Winooski, Vt.).

The nature of series [6]: Kinetics of lactone ring opening in RBC (HPLC). Type of series: in vitro ADME, human. From the text:
Kinetics of Lactone Ring Opening. […] Mi and Burke (1994), supra. […] Louis, Mo.) was used.

Series [7] can be described thus: Equilibrium binding to DMPC small unilamellar vesicles (fluorescence anisotropy titration). The conditions noted are these: for KDMPC overall association constant: PBS buffer at PH 7.4 and 37° C.
The nature of series [8]: Equilibrium binding to DMPG small unilamellar vesicles (fluorescence anisotropy titration). The conditions noted are these: PBS buffer at PH 7.4 and 37° C.
Series [9] can be described thus: Kinetics of lactone ring opening in whole human blood (HPLC).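 Further: hydrolytic opening of the camptothecin lactone ring followed over time by quantitative C18 reversed-phase HPLC in human whole blood at physiological temperature.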 The conditions noted are these: Whole Blood, physiological temperature.
Series [10] in a line: Kinetics of lactone ring opening in PBS containing HSA (HPLC). The conditions noted are these: HSA (PBS containing 30 mg/ml HSA).
A short description of series [11]: Self-association in aqueous solution (fluorescence intensity with time). Type of series: physicochemical. The note with it: lactone drug forms added to solution, time=0. How it is done:
FIG. 22 summarizes the dependence of the fluorescence intensity of DB172 as a function of time and pH. In these experiments DB172 is added to solution as the lactone form. At low pH where the drug remains in the lactone form, the change in intensity with time is the lowest. At pH 10, where the conditions are such that the lactone more readily hydrolyzes and forms carboxylate, a significant change in fluorescence intensity is observed. It appears that a pH 10 nonfluorescent micellular aggregates composed of lactone disassemble and form open-ring carboxylate forms that tend to exist in solution as monomeric fluorescent species.
FIG. 23 explores the fluorescence intensity of DB172 as a function of concentration. Following the addition of low concentration of lactone drug to solution, the change in fluorescence signal is the greatest whereas at high drug concentration (10 ^μM) the fluorescence intensity changes are minimal. It is believed that a low concentration the micellular aggregates of DB172 displaying reduced fluorescence can disassemble and form fluorescent carboxylate species, but at higher drug concentration the equilibrium favors that the agent remains in the aggregated or reduced fluorescence state. […] Once again this decrease in fluorescence that occurs at reduced pH appear to be due to the formation of lactone aggregates of reduced fluorescence quantum yield.
FIGS. 21 through 24 are consistent with the unusual ability of DB172 lactone to self-associate and form micelles at micromolar drug concentrations. The micellular DB172 aggregates display a reduced fluorescence. If conditions allow for hydrolysis to occur such that carboxylate forms, there is an increase in the fluorescence intensity of the sample. FIG. 25 compares the relative change in the fluorescence emission of a sample following addition of lactone drug forms to solution. In these experiments the values for each drug are normalized to a value of 1 at time equals to zero, and the ability of the various analogs to disassociate in the event the drugs are aggregated at time=0 is monitored with time. […]

For series [12] the following is noted: earlier studies; cited from earlier work.

For `CCC1(O)C(=O)OCc2c1cc1n(c2=O)Cc2c-1nc1ccccc1c2[Si](C)(C)C(C)(C)C` (stereo in doubt) [Example 2, (20S)-7-tert-butyldimethylsilylcamptothecin], the results for the half-life (in “in vitro” (blood); in [2] (buffer); in series [6] (human)) were 71.9 min, 27.9 min and 79.4 min, respectively. Further, the “% Lactone at Equilibrium” value is given as 1.0 +/− 0.1% in series [1], 12.2 +/− 0.4% in series [2] and 59.4 +/− 0.0% in series [6] (human). Besides, the IC50 in [3] was 1.2 nM; in [4], 2.9 nM; in series [5] it was 0.12 nM.

As to `CCC1(O)C(=O)OCc2c1cc1n(c2=O)Cc2c-1nc1ccc(N)cc1c2[Si](C)(C)C` (stereo in doubt) [Example 8, (20S)-10-amino-7-trimethylsilylcamptothecin], the half-life in the series “in vitro” (blood) came to 37.6 min; in series [2] (buffer) it was 31.3 min. For the same compound, the “% Lactone at Equilibrium” value in [1] is 12.3 +/− 0.0%; in series [2] it was 10.5 +/− 0.3%. In series [7], the “KDMPC overall association constant” value worked out at 820 M⁻¹. Further, the IC50 in series [3] came to 5.7 nM; in series [4], 0.72 nM; in series [5] it was 0.52 nM. Further, the “KDMPG overall association constant” value in series [8] was 360 M⁻¹.

Take `CC[C@@]1(O)C(=O)OCc2c1cc1n(c2=O)Cc2c-1nc1ccccc1c2[Si](C)(C)CCCN(C)C.Cl` [DB-104, 7-(3-dimethylaminopropyldimethylsilyl) camptothecin hydrochloride salt]: the t1/2 worked out at 77.2 ± 1.8 min in series [1] and 24.1 ± 1.0 min in [2] (buffer). Besides, the “% Lactone at Equilibrium” value in series [2] is 7.5 +/− 0.2%.

As for `CC[C@@]1(O)C(=O)OCc2c1cc1n(c2=O)Cc2c-1nc1ccccc1c2[Si](C)(C)CCCCl` [DB-148, (20S)-7-(3-chloropropyldimethylsilyl)camptothecin], the “% Lactone at Equilibrium” value was 2.2 +/− 3.6% in series [9], 12.0 +/− 0.5% in [2], 2.7 +/− 0.2% in series [10] and 43.4 +/− 0.8% in [6] (RBC). Moreover, the t1/2 was found to be 85.6 ± 9.2 min in series [9], 16.0 ± 0.2 min in series [10] and 59.7 ± 2.9 min in [6] (RBC).

With `CC[C@@]1(O)C(=O)OCc2c1cc1n(c2=O)Cc2c-1nc1ccc(O)cc1c2[Si](C)(C)CCCCl` [DB-158, (20S)-10-hydroxy-7-(3-chloropropyldimethylsilyl) camptothecin], the “% Lactone at Equilibrium” value is listed as 17.8 +/− 2.0% in series [9], 11.3 +/− 1.8% in series [2], 17.2 +/− 0.7% in [10] and 50.2 +/− 1.7% in series [6] (RBC). Moreover, the results for the t1/2 in series [9], in series [10] and in series [6] (RBC) were 65.3 ± 9.0 min, 48.0 ± 0.9 min and 67.7 ± 8.5 min, respectively.

Regarding `CC[C@@]1(O)C(=O)OCc2c1cc1n(c2=O)Cc2c-1nc1ccccc1c2CC[Si](C)(C)C` [DB-172, (20S)-7-[(2-Trimethylsilyl)ethyl]camptothecin], the “% Lactone at Equilibrium” value in series [9] is 24.1 +/− 2.6%; in series [10] it was 4.3 +/− 1.0%. Moreover, the t1/2 in [9] amounted to 106.6 ± 10.8 min; in series [10], 86.1 ± 10.3 min. The “self-association / aggregation state in solution” value in series [11] is recorded as “self-associates to an exceptionally high degree”. The “lactone ring stability at high drug concentrations” value in series [2] (PBS buffer, pH 7.4, physiological temperature) is recorded as “marked stabilization of the lactone ring”. In addition, in series [7], the “KDMPC overall association constant” value stood at 10500 M⁻¹. Also, the “K value for DMPC, fold greater than camptothecin” value in [7] (relative to camptothecin) is on record as ~100 fold. Besides, in [8], the “KDMPG overall association constant” value was determined as 10600 M⁻¹.

As to `CCc1c2c(nc3ccc(OC(=O)N4CCC(N5CCCCC5)CC4)cc13)-c1cc3c(c(=O)n1C2)COC(=O)[C@]3(O)CC` [IRT, irinotecan, reference compound], the “% Lactone at Equilibrium” value in [9] is listed as 21.0%. Moreover, the “lactone level at equilibrium in whole blood, fold greater than 9-aminocamptothecin” value in [1] is reported as “approximately 40 fold”. The “% lactone at equilibrium in whole human blood” value in [12] is listed as 21.0%. Further, the IC50 in series [3] turned out to be 487 nM; in [4] it was 372 nM; in [5], 270 nM.

Turning to `CCc1c2c(nc3ccc(O)cc13)-c1cc3c(c(=O)n1C2)COC(=O)[C@]3(O)CC` [SN-38, 10-hydroxy-7-ethylcamptothecin, reference compound], the “% Lactone at Equilibrium” value in [9] is on record as 19.5%; in series [9] (listed as SN 38), 20.2 +/− 1.9%. Further, the t1/2 in [1] turned out to be 50.7 ± 1.4 min. The “% lactone at equilibrium in whole human blood” value in series [12] was 19.5%. The “KDMPC overall association constant” value in [7] was determined as 260 M⁻¹. Moreover, the “KDMPG overall association constant” value in series [8] was found to be 160 M⁻¹.

With `CC[C@@]1(O)C(=O)OCc2c1cc1n(c2=O)Cc2cc3c(CN(C)C)c(O)ccc3nc2-1` [Topotecan, topotecan, reference compound], the “% Lactone at Equilibrium” value in series [9] is on record as 8.61 +/− 0.4%; in series [9] (listed as topotecan) it was 8.6%; in series [10], 7.06 +/− 0.3%. Moreover, the half-life in the series “in vitro” (whole blood) amounted to 30.9 min. In addition, in series [1], the “lactone level at equilibrium in whole blood, fold greater than 9-aminocamptothecin” value is given as 20 fold. The “% lactone at equilibrium in whole human blood” value in series [12] is on record as 11.9%. In addition, in [7] (relative to camptothecin), the “K value for DMPC liposomes, times less than that for camptothecin” value is ~10 times.
